Values joined by “and” are separate entries in the source; they are usually repeats but may differ in a detail not shown here. Equal values may be shown once.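 Method: 48-hour compound exposure of cells in 96-well plates, five concentrations, linear interpolation of endpoints. At the GI50, growth is halved. The concentration for full growth arrest is given as TGI.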 *1 amine or outer side, *2 acyl side, *3 side chain or, on linkers, in order; H or OH if unused. Where a SMILES comes first, the peptide text is derived from it. Bridges are numbered along the chain shown (N, C = ends). [ ]: non-standard residue; d: D form. The star is where a group is joined. Phe(3-Me) = Cc1cccc(C[C@H](N)C(=O)O)c1; NH(4-Cl-2-F-phenyl) = Fc1cc(Cl)ccc1N*; Pro(4R-Me) = C[C@H]1CN[C@H](C(=O)O)C1; Propanoyl(3-NMe2) = CN(C)CCC(=O)*; Hyp = O=C(O)[C@@H]1C[C@@H](O)CN1; aThr = C[C@H](O)[C@H](N)C(=O)O; Pip = O=C(O)[C@@H]1CCCCN1; CO = O=C([*:1])[*:2]
Key:
Test in all cases: NCI tumour cell line growth inhibition, 48 h
[1] = test system: SF-539 CNS
[2] = test system: SN12C renal
[3] = test system: HOP-62 NSCLC
[4] = test system: SK-MEL-2 melanoma
[5] = test system: OVCAR-8 ovarian
[6] = test system: HL-60(TB) leukemia
[7] = test system: HOP-92 NSCLC
[8] = test system: SF-295 CNS
[9] = test system: SNB-75 CNS
[10] = test system: MDA-MB-435

Row | Structure (SMILES) | GI50 [1] [µM] | TGI [1] | GI50 [2] [µM] | TGI [2] [µM] | GI50 [3] [µM] | TGI [3] | GI50 [4] [µM] | TGI [4] [µM] | GI50 [5] [µM] | TGI [5] [µM] | GI50 [6] [µM] | TGI [6] [µM] | GI50 [7] [µM] | TGI [7] [µM] | GI50 [8] [µM] | TGI [8] | GI50 [9] [µM] | TGI [9] | GI50 [10] [µM] | TGI [10]
1 | CCCN1CCN(c2ccc3nc(-c4ccc5nc(-c6ccc(OCC)c(OCC)c6)[nH]c5c4)[nH]c3c2)CC1 | 0.724 | 2.05 µM | 0.526 | 2.14 | 0.956 | 3.2 µM | 0.508 | 2.01 | 0.451 | 2.16 | 0.339 | 2.74 | 1 | 5.5 | 0.391 | 2.03 µM | 0.425 | 1.9 µM | 0.532 | 1.81 µM
2 | S=C(N/N=C(/c1ccccc1)c1ccccn1)Nc1cccc(Cl)c1 | 1.12 | 2.97 µM and 5.99 µM |  | 6.07 | 2.26 | 4.18 µM and 17.7 µM | 0.0753 | 2.87 | 0.0258 | 2.87 | 0.0152 | 0.162 | 1.65 | 13 | 0.968 | 5.36 µM and 5.17 µM | 0.608 | 2.92 µM and 4.88 µM | 1.09 | 2.95 µM and 4.56 µM
3 | COc1ccc(CNc2nc(NCc3ccc(OC)cc3)c3n[nH]c(C(C)C)c3n2)cc1 | 5.98 | 23.5 µM | 9.14 | 27.7 | 10 | 24.4 µM | 1.98 | 4.93 | 12.5 | 53.6 | 2.75 | 6.44 | 9.48 | 37.4 | 3.24 | 9.96 µM | 0.406 | 5.32 µM | 3.17 | 11.1 µM
4 | CCc1ccc(Nc2cc(C)nc3nc(C)nn23)cc1 | > 100 | > 100 µM | 46.1 | > 100 | > 100 | > 100 µM | > 100 | > 100 | 79.8 | > 100 | > 100 | > 100 | 28.9 | > 100 | 78.2 | > 100 µM | 35.6 | > 100 µM | 53.8 | > 100 µM
5 | C/C(=N\NC(=O)c1ccncc1)c1ccc(O)cc1O | 5.67 | > 100 µM | 6.48 | > 100 | 3.93 | > 100 µM | > 100 | > 100 | 2.93 | > 100 | 3.4 | 32.6 | 17.1 | > 100 | 2.39 | 6.69 µM | 14.1 | 88.2 µM | 5.03 | > 100 µM
6 | Cc1cccc(C[C@H](NC(=O)Nc2ccc(Cl)cc2F)C(=O)N[C@@H]2C(=O)N3C[C@H](OC(=O)CCN(C)C)C[C@H]3C(=O)N3CCCC[C@H]3C(=O)N[C@@H](C)C(=O)N3C[C@H](C)C[C@H]3C(=O)O[C@H]2C)c1 ({NH(4-Cl-2-F-phenyl)-CO}-[Phe(3-Me)][aThr][Hyp](Propanoyl(3-NMe2))[Pip]A[Pro(4R-Me)]; ester 2-C) | 0.704 | 2.17 µM | 0.371 | 2.18 | 0.536 | 7.24 µM | 0.667 | 2.67 | 0.431 | 12.9 | 0.354 | 1.9 | 0.572 | 2.66 | 0.426 | 2.15 µM | 1.26 | 9.44 µM | 0.432 | 1.65 µM

Reference: PubChem BioAssay (NCI)
